Source: US20060204981A1, “Compositions for modulation of PARP and methods for screening for same” (priority 2005, published 2006)
Where two headings read alike, the source gives them in different places.

How the values were obtained:
[1] = system: E2F1 tet-inducible DLD1 cells; assay: Apoptosis in E2F1 tet-inducible DLD1 cells; type: cell-based
Excerpt: To investigate E2F1 induced apoptosis, an inducible system was established. Human colon cancer cell lines harboring a mutated p53 gene were used to generate E2F1-inducible cell lines (Rodrigues, et al., PNAS, 87:7555-9 (1990)). […] Under the tetracycline induction conditions, a significant percentage of DLD1 cells undergoing apoptosis were detected at a given time point (10% at day 3; 15% at day 4) as determined by propidium iodide (PI) staining and flow cytometry (FIG. 10B). The apoptosis was further confirmed by assaying morphological changes following expression of E2F1 (FIG. 10C). Similar data was obtained in E2F1-inducible SW480 human colon cancer cells. In addition to proapoptotic function, E2F1 is a necessary transcription factor for cell proliferation (Johnson, D. et al., Nature 365:349-52 (1993); Wu, L. et al. Nature 414:457-62 (2001)). Under these experimental conditions, no significant changes in overall cell cycle distribution were observed.
To further investigate the mechanism of E2F1-induced apoptosis, the role of caspase activation was investigated. Two forms of caspase-3, procaspase and cleaved caspase were detected by western blot analysis. […] Further, it was determined if E2F1-induced, p53 independent apoptosis was affected by inhibiting caspase function with a pancaspase inhibitor. Apoptosis induced by camptothecin, a known caspase-3 activator, was used as a positive control.
Activation of PARP-1 has been implicated in caspase independent apoptosis. It was investigated whether E2F1 induced cell death involved PARP-1 activation. Poly ADP ribosylation (PAR), the functional indicator of PARP-1 activation, was detected by immunoblot with a specific anti-PAR antibody. […] Immunocytochemical staining of PAR further conformed the activity of PARP-1 (FIG. 11B). The nuclear PAR stain was increased after expression of E2F1 for 24 h and reached a plateau at 48 h. To determine if poly ADP ribosylation plays a causal role in E2F1 induced apoptosis, 3′-aminobenzamide (3′-AB), a universal inhibitor of PARP activity, was used.
Protein poly ADP ribosylation is catalysed by members of the poly (ADP-ribose) polymerase family that consists of 18 genes (Amé, J. C., et al., Bioessays 26:882-93 (2004)). The PARP-1 protein is the dominant member in most cells, which contributes the majority of overall poly ADP ribosylation induced by DNA damage (Davidovic, L. et al., Exp Cell Res 268:7-13 (2001)). To distinguish which member of the PARP family was involved in E2F1-induced apoptosis, siRNA technology was utilized to reduce PARP-1 protein levels. A chemically synthesized PARP-1 siRNA pool was electroporated into the DLD1-E2F1 inducible cell line. The PARP-1 protein began to decrease at day 2 and reached the lowest levels at day 4 and gradually recovered from day 6 as shown by western blot (FIG. 12A) and immunocytochemical staining. […] The E2F1-induced apoptosis was compromised following PARP-1 knockdown (P<0.001) (FIG. 12C).

[2] = system: PARP; assay: Immunofluorescence analysis with anti-poly(ADP-ribose) antibody, HeLa cells; type: cell-based
Procedure: HeLa and DLD1 cells were grown on coverslips for PARP activity experiments. Cells treated with 4 uM β-lapachone at different time points and fixed with methanol acetone (70/30, v/v) for 10 min at −20° C. Coverslips were air dried and rehydrated in PBS at room temperature for 10 min. Samples were than incubated in blocking buffer (PBS, 5% FBS) for 10 minutes at room temperature in a humid chamber. Cells were incubated overnight at 4° C. with monoclonal anti-poly(ADP-ribose) antibody (I OH, 1:100 dilution). After washing, the cells were incubated for 1 hr at room temperature with a 1:500 dilution of FITC conjugated anti-mouse antibody. For the PARP inhibition study, cells pre-teated for 1 h with the PARP inhibitor 3-aminobenzamide (3-AB, 5 mM), and then co-treated with inhibitor and β-lapachone for a further 10 minutes followed by immunofluorescence staining. Immunofluorescence was evaluated using an immunofluorescence microscope equipped with a CCD camera.
HeLa cells were grown on coverslips for 24 h, then treated with 4 μM β-lapachone at different time points and fixed with methanol acetone (70/30, v/v) for 10 min. Samples were incubated in blocking buffer (5% FBS in PBS) for 10 minutes at room temperature in a humid chamber. […] Immunofluorescence was evaluated using an immunofluorescence microscope equipped with a CCD camera. […]

[3] = system: DLD1 cells; assay: MTT cell death assay, DLD1 cells; type: cell-based, human
Procedure: (§1) Cell death was determined by the 3-(4,5-dimethylthiazol-2-yl)-2,5-diphenyl tetrazolium bromide (MTT) assay or by trypan blue exclusion, as indicated. Briefly, HeLa and DLD1 cells were plated in a 96-well plate at 10,000 cells per well, cultured for 24 h in complete growth medium, then treated with various concentrations of β-lapachone for 4 h MTT was added to a final concentration of 0.5 mg/ml, and incubated for 1 hr, followed by assessment of cell viability using a microplate reader at 570 nm. For the trypan blue exclusion assay, HeLa and DLD1 cells were plated in 6-well plate and treated in the same way. They were harvested, and trypan blue dye solution was added to the cell suspension. Total cell counts and viable cell numbers were determined with a hemacytometer. For the PARP inhibition study, cells were […] for 1 h with the PARP inhibitor 3-aminobenzamide (3-AB, 5 mM), and then co-treated with inhibitor and β-lapachone for a further 4 h, followed by MTT assay or trypan blue staining. […] HeLa and DLD1 cells were plated in 96-well plates at 10,000 cells per well, cultured for 24 h in complete growth medium, pretreated with PARP inhibitor 3-AB […] or equal volume of DMSO for 1 h, and then exposed to β-lapachone at various concentrations for a further 4 h, followed by MTT assay.

[4] = system: HeLa cells; assay: NAD depletion assay; type: cell-based
Procedure: HeLa cells were plated at 6×10^5 cells per well (35 mm, 6-well dishes). Eighteen hours after plating, cells were treated with β-lapachone (0, 2, 4 or 8 μM) in growth media (DMEM; 10% FBS) for the time periods indicated (15, 30 and 60 minutes). Following drug treatment cells were washed 2× with PBS. Cells were subsequently lysed in 200 μL NAD lysis buffer (61 mM glycyl-glycine, pH 7.4, 0.1% Triton-X-100). Cellular lysates were clarified by centrifugation at 16,000 g for 10 minutes. Aliquots of clarified lysates were transferred to 96-well plates (25 μL samples in triplicate) for to determine NAD^+ concentrations.
Determination of lysate NAD levels was performed using a modification of the NAD recycling assay described by Ying et al. (PNAS, 98(21):12227-32 (2001)). Briefly, the NAD reaction mixture consisted of 0.1 mM 3-[4,5-dimethylthiazol-2-yl]-2,5-diphenyl-tetrazolium bromide (MTT), 0.9 mM phenazine methosulfate, 13 units/ml alcohol dehydrogenase (from yeast extract, Sigma), 100 mM nicotinamide, and 5.7% ethanol in 61 mM Gly-Gly buffer (pH 7.4). To each aliquot of cellular lysate, 200 μL of reaction mixture was added. Absorbance readings (560 nm) were taken every minute for five minutes. Results were calibrated with NAD^+ standards and were subsequently normalized to protein concentration as determined using the Bio-Rad protein Assay.

[5] = system: HeLa cells; assay: MTT cell death assay, HeLa cells; type: cell-based; conditions: for cell survival percentage: MTT (FIG. 1)
Procedure: as §1

[6] = system: MCF7 cells; assay: NAD+ supplementation experiment, MTT assay; type: cell-based; conditions: Homo sapiens, 4 h, MTT (FIG. 8), read-out: IC50 (cytotoxicity)
Procedure: For NAD^+ supplementation experiment, MCF7 cells were plated in 96-well plates at a density of 10,000 cells per well. Sixteen to eighteen hours later cells were pre-treated with […] 3-aminobenzamide, 10 mM NAD+, or vehicle control (all treatments in formulated in growth media: DMEM with 10% fetal bovine serum) for 1 hour at 37° C. Following this incubation, cells (under each pre-incubation treatment) were treated with β-lapachone at indicated concentrations for 4 hours at 37° C. An MTT assay was then performed as described above.

[7] = system: PARP; assay: PARP activity assay in cell lysate; type: biochemical, human; conditions: various β-lapachone concentrations vs 0 μM control, dose-dependent (FIG. 9)
Procedure: A cell extract was generated by scraping a 15 cm (˜80% confluent) dish of MCF7 cells into 1.5 ml of PARP buffer (50 mM Tris pH 8.0, 25 mM MgCl2) containing protease inhibitors. The cell suspension was sonicated at 30% amplitude with 3×10 second bursts on ice. The cell lysate was subsequently clarified by centrifugation at 16,000 g for 10 minutes at 4° C. Any remaining insoluble material was removed by passing the clarified lysate through a 5 ml syringe containing a cotton pad-filter. The protein concentration of extracts was typically between […]. PARP in vitro activity was determined using a modification of the PARP in vitro assay from TREVIGEN™. Reactions were comprised of the following: ˜60 μg of cellular protein, 100 μM NAD, 10 μg of histone H1, β-lapachone (at various concentrations) or DMSO control, 25 mM MgCl2, 50 mM Tris-Cl pH 8.0. Reactions were incubated for 10 minutes at room temperature and terminated by the addition of 900 μL of cold 25% trichloroacetic acid. Terminated reactions were incubated on ice for 10 minutes. TCA-precipitated proteins were isolated by passing reaction over glass-fiber filters under vacuum. Filters were subsequently washed three times with 5 ml of 5% TCA followed by 2 washes with cold ethanol. […] The amount of ^32P labeled NAD incorporated into polyribosylated proteins was then determined by liquid scintillation measurement.

**Q.** Which results are given for `NC(=O)c1cccc(N)c1` [3-aminobenzamide]?
**A.** effect on apoptosis of addition alone ([1]; 3′-AB alone vs control group): no effect on apoptosis; inhibition at 5000 µM ([1]; Homo sapiens, DLD-1, read-out: inhibition of E2F1 induced apoptosis): > 70%; effect on β-lapachone induced activation of PARP ([2]; 5 mM 3-AB 1 h, then 4 μM β-lapachone 10 minutes (FIG. 5)): blocked; effect on β-lapachone-induced cell death ([3]; 3-AB pretreatment 1 h, MTT): blocked; effect on β-lapachone-mediated NAD+ depletion ([4]; data not shown): inhibited; effect on β-lapachone-induced cell death ([5]; HeLa cells, 3-AB pretreatment 1 h, MTT): blocked

**Q.** What does the source list for `CC1(C)CCC2=C(O1)c1ccccc1C(=O)C2=O` [β-lapachone, 3,4-dihydro-2,2-dimethyl-2H-naphtho [1,2-b]pyran-5,6-dione]?
**A.** activation of PARP (anti-poly(ADP-ribose) fluorescence) ([2]; 4 μM β-lapachone, 5 minutes to 2 hours (FIG. 4)): increases fluorescence; cell survival percentage ([3]; pretreated 1 h with PARP inhibitor 3-AB, then β-lapachone for 4 h, MTT (FIG. 1)): approximately 75%; cellular NAD+ levels ([4]; 8 μM β-lapachone, within 15 minutes (FIG. 7)): ~20 % of control; cellular NAD+ levels ([4]; β-lapachone concentrations in excess of the IC50, by 30 minutes (FIG. 7)): less than 50 % of control; IC50 ([6]; control (no NAD+ supplementation)): ~2.7 µM; IC50 ([6]; exogenous NAD+ supplementation (10 mM, 1 h pre-treatment)): ~6.6 µM; PARP activity in cellular lysate [7]: induces enhancement of PARP activity above the basal level; cell survival percentage ([5]; HeLa cells, pretreated 1 h with PARP inhibitor 3-AB, then β-lapachone for 4 h): ~60%; cell survival percentage ([5]; HeLa cells, β-lapachone for 4 h without 3-AB): approximately 5%; IC50 ([5]; Homo sapiens, HeLa, cytotoxicity IC50 quoted in the NAD+ depletion example, cell line not given): ~2.8 µM

**Q.** With Z-VAD as the compound, how does the “cytotoxic effects of addition alone” value ([1]; Z-VAD alone) read?
**A.** Its value is “no cytotoxic effects”.

**Q.** What about the “effect on camptothecin-induced apoptosis” value ([1]; Z-VAD at 50 μM (FIG. 10F)) of the same compound?
**A.** Its value is “blocked”.

**Q.** And the “effect on E2F1-induced apoptosis” value ([1]; Z-VAD at 50 μM, tetracycline induction (FIG. 10F))?
**A.** The value was “failed to block”.
